Measurements taken from ChEMBL document CHEMBL3045741, “Antithyroid agents and QSAR studies: inhibition of lactoperoxidase-catalyzed iodination reaction by isochromene-1-thiones” (Med Chem Res, 2013).
The source made the active and inactive calls. No cut-off for these calls is given here.

How the values were obtained:
[1] = molecular target: Lactoperoxidase (Bos taurus, UniProt P80025); test: Inhibition of Bos taurus (bovine) milk lactoperoxidase-catalyzed iodination of L-tyrosine substrate by reverse phase HPLC analysis
[2] = molecular target: Lactoperoxidase (Bos taurus) (UniProt P80025); test: Non-competitive inhibition of Bos taurus (bovine) milk lactoperoxidase using fixed concentration of L-tyrosine and varying concentration of H2O2 as substrate by Lineweaver-burk plot analysis
[3] = molecular target: Lactoperoxidase (Bos taurus) (UniProt P80025); test: Non-competitive inhibition of Bos taurus (bovine) milk lactoperoxidase using varying concentration of L-tyrosine and fixed concentration of H2O2 as substrate by Lineweaver-burk plot analysis
[4] = molecular target: Lactoperoxidase (Bos taurus) (UniProt P80025); test: Irreversible inhibition of Bos taurus (bovine) milk lactoperoxidase using L-tyrosine as substrate at 30 uM in presence of 0.08 to 0.8 mM H2O2 by reverse phase HPLC analysis

| SMILES | IC50 [1] | further results |
| --- | --- | --- |
| O=c1oc(-c2cccc3ccccc23)cc2ccccc12 | 34.6 µM | – |
| S=c1oc(-c2ccoc2)cc2ccccc12 | 26.5 µM | – |
| O=c1oc(-c2ccc(Cl)cc2)cc2ccccc12 | 105 µM | – |
| O=c1oc(-c2ccco2)cc2ccccc12 | > 200 µM | – |
| O=c1oc(-c2ccccc2)cc2ccccc12 | > 200 µM | – |
| Cc1ccc(-c2cc3ccccc3c(=O)o2)cc1 | 93.8 µM | – |
| COc1ccc(-c2cc3ccccc3c(=O)o2)cc1 | > 200 µM | – |

Further lines, with some results ahead:

| IC50 [1] | SMILES | further results |
| --- | --- | --- |
| 26.4 µM | S=c1oc(-c2ccc(Cl)cc2)cc2ccccc12 | – |
| 6.2 µM | Cc1ccc(-c2cc3ccccc3c(=S)o2)cc1 | inhibition [2]: Active; inhibition [3]: Active |
| 5.1 µM | S=c1oc(-c2cccc3ccccc23)cc2ccccc12 | inhibition [4]: Active; inhibition [2]: Active; inhibition [3]: Active |
| 5.5 µM | S=c1oc(C2CCCCC2)cc2ccccc12 | – |
| 8.4 µM | Cn1cc[nH]c1=S [METHIMAZOLE] | – |
| 14.3 µM | S=c1oc(-c2cccs2)cc2ccccc12 | – |
| 13.9 µM | S=c1oc(-c2ccccc2)cc2ccccc12 | – |
| 21.9 µM | CC(C)(C)c1cc2ccccc2c(=S)o1 | – |
| 17.4 µM | CCCCc1cc2ccccc2c(=S)o1 | – |
| 17.8 µM | S=c1oc(-c2ccco2)cc2ccccc12 | – |
| 8.4 µM | COc1ccc(-c2cc3ccccc3c(=S)o2)cc1 | inhibition [4]: Active |
